Assay type in all cases: cell-based
For one test, the system named is HeLa cells. As to the kind of experiment: Cytoprotection from ER stress (tunicamycin), cell viability by WST-8. Details: key to Cytoprotection from ER stress compared to guanabenz: +: lower cytoprotective effect compared to Guanabenz; ++: similar cytoprotective effect compared to Guanabenz; +++: higher cytoprotective effect compared to Guanabenz. As to conditions: for Cytoprotection from ER stress compared to guanabenz: HeLa cells, 6 hour exposure to tunicamycin 5 μg/mL, compounds 0.5-10 μM, viability 48 h or 72 h. In a few lines:
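HeLa cells stressed with 5 μg/mL tunicamycin plus PPP1R15A inhibitors (0.5–10 μM); media replaced at 6 h with fresh inhibitor. Viability by WST-8 reduction at 48 or 72 h after tunicamycin; cytoprotection scored +/++/+++ against Guanabenz.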

Another test concerns the target T1, human alpha2A receptor (Homo sapiens, UniProt P08913).
T1 construct: CHO cells endogenously expressing human alpha2A receptor; endogenous in cells; host or cells: CHO cells
T1 sequence (P08913 1-465): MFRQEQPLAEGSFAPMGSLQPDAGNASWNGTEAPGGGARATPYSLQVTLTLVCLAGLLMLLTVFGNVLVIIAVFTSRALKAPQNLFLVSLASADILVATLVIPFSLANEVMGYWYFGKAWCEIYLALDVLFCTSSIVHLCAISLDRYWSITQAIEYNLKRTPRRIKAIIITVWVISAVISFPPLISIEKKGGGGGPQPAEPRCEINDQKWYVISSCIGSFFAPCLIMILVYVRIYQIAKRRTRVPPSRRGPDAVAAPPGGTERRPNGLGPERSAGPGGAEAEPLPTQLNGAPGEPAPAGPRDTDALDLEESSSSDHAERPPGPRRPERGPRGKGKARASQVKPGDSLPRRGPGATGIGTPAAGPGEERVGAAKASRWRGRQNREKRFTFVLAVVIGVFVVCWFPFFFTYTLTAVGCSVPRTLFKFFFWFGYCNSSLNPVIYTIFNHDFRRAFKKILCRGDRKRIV
In words: Functional GPCR assay for adrenergic α2A receptor (CellKey detection method). As to conditions: agonist activity, CHO cells expressing human alpha2A receptor, impedance (CellKey); read-out: Functional adrenergic alpha2 receptor assay EC50. The procedure:
The agonist activity of compounds was evaluated on CHO cells […] expressing human alpha2A receptor and was determined by measuring their effects on impedance modulation using the CellKey detection method. Cells were seeded onto 96-well plate at density of 6×10^4 cells/well in HBSS buffer (Invitrogen)+20 mM HEPES (Invitrogen) with 0.1% BSA and are allowed to equilibrate for 60 min at 28° C. before the start of the experiment. Plates were placed onto the system and measurements were made at a temperature of 28° C. Solutions were added simultaneously to all 96 wells using an integrated fluidics system: HBSS (basal control), reference agonist at 100 nM (stimulated control), reference agonist (EC50 determination) or the test compounds. Impedance measurements are monitored for 10 minutes after ligand addition. The standard reference agonist is epinephrine, which is tested in each experiment at several concentrations to generate a concentration-response curve from which its EC50 value is calculated.
Dose-response data from test compounds were analysed with Hill software using non-linear regression analysis of the concentration-response curves generated with mean replicate values using Hill equation curve fitting.

The subject of a further test is Min6 insulinoma cell. In words: Min6 cell line cytoprotection from ER stress (tunicamycin). To be noted: 6 hour exposure to tunicamycin 2.5 μg/mL, different concentrations, viability 72h. As for the experimental part: Cells were plated in 96 well plates at a density of 0.5.10^6 cells/mL for Min6 cell line, 0,4.10^6 cells/mL for INS1 cell line the day before the treatment. ER stress was elicited by addition of 2.5 μg/mL tunicamycin (Sigma Aldrich) together with phosphatases inhibitors. Media were changed 6h later with fresh media and the cytoprotection was maintained by the addition of phosphatases inhibitors. Cell viability was assessed by measuring the reduction of WST-8 into formazan using Cell Counting Kit-8 (Sigma) according to the supplier's recommendation, 72h after tunicamycin treatment.

Test [1] relates to T181P mutated DM20 protein expressed in Human 293T cell. In words: In vitro model of leukodystrophy (PMD): overexpression of mutated DM20, protein accumulation by western-blot. To be noted: 5 microM, western-blot 48h. As for the experimental part:
Human open reading frame (ORF) sequences for PLP1, DM20 and Insulin were obtained from Life Technologies (Invitrogen) (IOH41689, IOH5252 and IOH7334 respectively). Construct cloning into the expression plasmid pDEST26 (Invitrogen) was performed by Gateway® LR Clonase™ II Enzyme Mix (Invitrogen). ORF mutations were carried out using the QuikChange Lightning Site-Directed Mutagenesis Kit (Stratagene) (T181P mutation for PLP1 and DM20 ORFs, Akita (C96Y) for Insulin ORF).
One day before transfection, 293T cells were plated at 300,000 cells/mL. 293T cells were transfected with PLP1 and DM20 mutant constructs using Lipofectamine 2000 according to manufacturer's procedure. After transfection, cells were treated with molecules or left untreated.
As a control, cells were transfected with native forms of the proteins. 48h later, cellular lysates were harvested. Protein accumulation was assessed by western-blot.

`CCO/N=C(\N)N/N=C/c1ccccc1Cl` [Compound 10, 2-(2-chlorobenzylidene)-N′-ethoxyhydrazinecarboximidamide]: the “Cytoprotection from ER stress compared to guanabenz” value in the test with HeLa cells is on record as “++”. In addition, the EC50 (usually the concentration at which the effect is half-maximal) at human alpha2A receptor is over 33.3 µM.
`CCONC(=N)N/N=C/c1c(Cl)cccc1Cl` [Compound 11, 2-(2,6-dichlorobenzylidene)-N-ethoxyhydrazinecarboximidamide]: in the test on HeLa cells, the “Cytoprotection from ER stress compared to guanabenz” value is listed as “+++”. For the same compound, the concentration giving a half-maximal response (EC50) at human alpha2A receptor was over 0.7 µM.
With `CCCONC(=N)N/N=C/c1ccccc1Cl` [Compound 12, 2-(2-chlorobenzylidene)-N-propoxyhydrazinecarboximidamide], the “protection of Hela cells from ER stress (FIG. 1)” value with HeLa cells (ER stress induced by 6 hour exposure to tunicamycin) is “dose dependent protection”. In addition, the “Cytoprotection from ER stress compared to guanabenz” value with HeLa cells was “+++”. Besides, in the test with Min6 insulinoma cell, the “prevention of Min6 insulinoma cell death (FIG. 7)” value was “prevent Min6 insulinoma cell death”. The “prevention of accumulation of T181P mutated DM20 protein (FIG. 5)” value in test [1] was “able to prevent the accumulation”. Further, the half-maximal effective concentration (EC50) at human alpha2A receptor was over 33.3 µM.
`CCONC(=N)N/N=C/c1c(F)cccc1Cl` [Compound 17, 2-(2-chloro-6-fluorobenzylidene)-N-ethoxyhydrazinecarboximidamide]: the “Cytoprotection from ER stress compared to guanabenz” value with HeLa cells is “+++”. Also, the “prevention of Min6 insulinoma cell death (FIG. 7)” value with Min6 insulinoma cell is listed as “prevent Min6 insulinoma cell death”. Further, in test [1], the “prevention of accumulation of T181P mutated DM20 protein (FIG. 5)” value is listed as “able to prevent the accumulation”. The concentration for a half-maximal effect (EC50) on human alpha2A receptor is over 33.3 µM.
